Source: patent publication US20260125382A1, “COMPOUNDS FOR INHIBITING OR DEGRADING CDK2 AND/OR CDK9 AND MEDICINAL USE THEREOF” (KOREA RESEARCH INSTITUTE OF CHEMICAL TECHNOLOGY, priority 2022, published 2026)

Legend:
CDK2 = target: T1, CDK2 (Homo sapiens, UniProt P24941); assay: CDK protein degradation activity (Western blotting), CDK2; type: cell-based; details: MDA-MB-231 cells, 16 hours, Western blot
T1 construct: endogenous in cells; host or cells: MDA-MB-231
Method in brief: (§1)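 MDA-MB-231 cells were treated with compound at final concentrations of 100 nM, 1 μM and 10 μM, or DMSO vehicle, for 16 h. Lysates were resolved by SDS-PAGE and immunoblotted for CDK2, CDK9 and tubulin, with band intensities quantified densitometrically.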

CDK9 = target: T2, CDK9 (Homo sapiens, UniProt P50750); assay: CDK protein degradation activity (Western blotting), CDK9; type: cell-based; details: MDA-MB-231 cells, 16 hours, Western blot
T2 construct: endogenous in cells; host or cells: MDA-MB-231
T2 sequence (P50750 whole entry): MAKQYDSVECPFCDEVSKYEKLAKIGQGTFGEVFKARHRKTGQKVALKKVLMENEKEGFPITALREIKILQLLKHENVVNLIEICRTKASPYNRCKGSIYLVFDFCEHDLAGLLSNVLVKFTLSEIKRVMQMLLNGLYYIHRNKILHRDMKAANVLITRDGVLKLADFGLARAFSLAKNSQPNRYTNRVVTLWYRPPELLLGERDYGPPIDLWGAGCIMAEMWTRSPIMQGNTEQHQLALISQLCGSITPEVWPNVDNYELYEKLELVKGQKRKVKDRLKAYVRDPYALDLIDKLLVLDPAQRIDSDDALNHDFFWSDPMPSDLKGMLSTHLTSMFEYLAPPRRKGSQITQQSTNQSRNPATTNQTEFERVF
Method in brief: as §1

Row | Structure (SMILES) | Enzyme degradation CDK2 (% remaining) @ 0.1 μM (CDK2) | Enzyme degradation CDK2 (% remaining) @ 1 μM (CDK2) | Enzyme degradation CDK2 (% remaining) @ 10 μM (CDK2) | Enzyme degradation CDK9 (% remaining) @ 0.1 μM (CDK9) | Enzyme degradation CDK9 (% remaining) @ 1 μM (CDK9) | Enzyme degradation CDK9 (% remaining) @ 10 μM (CDK9)
1 | O=C1CCC(N2C(=O)c3cccc(OCC(=O)N4CCC5(CC4)CC(N4CCC(c6ccc(Nc7ncnc8c7ncn8[C@H]7C[C@@H](NC(=O)Cc8ccccc8)C7)cc6)CC4)C5)c3C2=O)C(=O)N1 (some centres unmarked) [Compound 293, N-((1s,3s)-3-(6-((4-(1-(7-(2-((2-(2,6-dioxopiperidin-3-yl)-1,3-dioxoisoindolin-4-yl)oxy)acetyl)-7-azaspiro[3.5]nonan-2-yl)piperidin-4-yl)phenyl)amino)-9H-purin-9-yl)cyclobutyl)-2-phenylacetamide] | 0/0/0% | 0/0/0% | 0/0/0% | 0/0/0% | 0/0/0% | 0/0/0%
2 | Cc1cccc(C(=O)N[C@H]2C[C@@H](n3cnc4c(Nc5ccc(N6CCN(CC7CCN(C(=O)C8CCN(c9cc%10c(cc9F)C(=O)N([C@H]9CCC(=O)NC9=O)C%10=O)CC8)CC7)CC6)cc5)ncnc43)C2)n1 [Compound 476, N-((1s,3s)-3-(6-((4-(4-((1-(1-(2-(2,6-dioxopiperidin-3-yl)-6-fluoro-1,3-dioxoisoindolin-5-yl)piperidin-4-carbonyl)piperidin-4-yl)methyl)piperazin-1-yl)phenyl)amino)-9H-purin-9-yl)cyclobutyl)-6-methylpicolinamide] | 70% |  | 60% | 50% | 10% | 10%
3 | Cc1cccc(C(=O)N[C@H]2C[C@@H](n3cnc4c(Nc5ccc(N6CCN(CC7CCN(C(=O)COc8ccc9c(c8)C(=O)N([C@H]8CCC(=O)NC8=O)C9=O)CC7)CC6)cc5)ncnc43)C2)n1 [Compound 90, N-((1s,3s)-3-(6-((4-(4-((1-(2-((2-(2,6-dioxopiperidin-3-yl)-1,3-dioxoisoindolin-5-yl)oxy)acetyl)piperidin-4-yl)methyl)piperazin-1-yl)phenyl)amino)-9H-purin-9-yl)cyclobutyl)-6-methylpicolinamide] | 40% | 20% | 10% | 0/0/0% | 0/0/0% | 0/0/0%
4 | O=C1CCC(N2C(=O)c3ccc(N4CCC(C(=O)N5CC(N6CCN(c7ccc(Nc8ncnc9c8ncn9[C@H]8C[C@@H](NC(=O)Cc9ccccc9)C8)cc7)CC6)C5)CC4)cc3C2=O)C(=O)N1 (some centres unmarked) [Compound 350, N-((1s,3s)-3-(6-((4-(4-(1-(1-(2-(2,6-dioxopiperidin-3-yl)-1,3-dioxoisoindolin-5-yl)piperidin-4-carbonyl)azetidin-3-yl)piperazin-1-yl)phenyl)amino)-9H-purin-9-yl)cyclobutyl)-2-phenylacetamide] | 30/30/30% | 30/30/30% | 30/30/30% | 50% | 30% | 30%
5 | O=C1CC[C@H](N2C(=O)c3ccc(N4CCC(CC(=O)N5CCN(c6ccc(Nc7ncnc8c7ncn8[C@H]7C[C@@H](NC(=O)Cc8ccccc8)C7)cc6)CC5)CC4)cc3C2=O)C(=O)N1 [Compound 216, N-((1s,3s)-3-(6-((4-(4-(2-(1-(2-(2,6-dioxopiperidin-3-yl)-1,3-dioxoisoindolin-5-yl)piperidin-4-yl)acetyl)piperazin-1-yl)phenyl)amino)-9H-purin-9-yl)cyclobutyl)-2-phenylacetamide] | 40% | 40% | 50% | 50/50/50% | 50/50/50% | 50/50/50%
6 | Cc1cccc(C(=O)NC2CC(n3cnc4c(NCCC5CCN(CC6CCN(c7ccc8nnn([C@H]9CCC(=O)NC9=O)c(=O)c8c7)CC6)CC5)ncnc43)C2)n1 (some centres unmarked) [Compound 304, N-((1s,3s)-3-(6-((2-(1-((1-(3-(2,6-dioxopiperidin-3-yl)-4-oxo-3,4-dihydrobenzo[d][1,2,3]triazin-6-yl)piperidin-4-yl)methyl)piperidin-4-yl)ethyl)amino)-9H-purin-9-yl)cyclobutyl)-6-methylpicolinamide] | 20% | 30% | 50% | 20% | 0% | 0%
7 | O=C1CC[C@H](n2nnc3ccc(N4CCC(CN5CCN(c6ccc(Nc7ncnc8c7ncn8C7CC(NC(=O)c8cccc(Cl)n8)C7)cc6)CC5)CC4)cc3c2=O)C(=O)N1 (some centres unmarked) [Compound 417, 6-chloro-N-((1s,3s)-3-(6-((4-(4-((1-(3-(2,6-dioxopiperidin-3-yl)-4-oxo-3,4-dihydrobenzo[d][1,2,3]triazin-6-yl)piperidin-4-yl)methyl)piperazin-1-yl)phenyl)amino)-9H-purin-9-yl)cyclobutyl)picolinamide] | 10% | 0% | 0% | 10/10/10% | 10/10/10% | 10/10/10%
8 | Cc1cccc(C(=O)NC2CC(n3cnc4c(Nc5ccc(N6CCN(C(=O)COc7cccc8c7C(=O)N([C@H]7CCC(=O)NC7=O)C8=O)CC6)cc5)ncnc43)C2)n1 (some centres unmarked) [Compound 85, N-((1s,3s)-3-(6-((4-(4-(2-((2-(2,6-dioxopiperidin-3-yl)-1,3-dioxoisoindolin-4-yl)oxy)acetyl)piperazin-1-yl)phenyl)amino)-9H-purin-9-yl)cyclobutyl)-6-methylpicolinamide] | 70% | 60% | 50% | 60% | 40% | 30%
9 | O=C(COc1ccc(C2CCC(=O)NC2=O)cc1)NC[C@H]1CC[C@H](CN2CCN(c3ccc(Nc4ncnc5c4ncn5[C@H]4C[C@@H](NC(=O)Cc5ccccc5)C4)cc3)CC2)CC1 (some centres unmarked) [Compound 217, 2-(4-(2,6-dioxopiperidin-3-yl)phenoxy)-N-(((1r,4r)-4-((4-(4-((9-((1s,3s)-3-(2-phenylacetamido)cyclobutyl)-9H-purin-6-yl)amino)phenyl)piperazin-1-yl)methyl)cyclohexyl)methyl)acetamide] | 80% | 100% | 50% | 0/0/0% | 0/0/0% | 0/0/0%
